The test system of test [1] is fMLP-dependent ERK activation. The test can be described thus: fMLP-dependent ERK activation. Type of test: cell-based.
For test [2], the target named is T1, Gβγ (protein interaction site of Gβ) (Rattus norvegicus, UniProt P54311).
T1 construct: made in house; host or cells: Sf9 insect cells (baculovirus), co-expressed with BirA and (His)6-Gαi1
The test can be described thus: Phage ELISA: small molecules competing with SIGK-phage binding to immobilized biotinylated Gβγ. Particulars: read-out: IC50. As for the experimental part:
Exemplary compounds of the present invention were initially selected from a computational screen to identify ligands that bind to the novel protein interaction site of Gβ. The computational screen involved using SYBYL molecular modeling software to model the protein interaction site of Gβ as determined in the X-ray structure disclosed herein. The computational docking screen was performed with the National Cancer Institute 1900 compound library wherein the compounds were tested for docking to the protein interaction site of Gβ using FLEXX™ (Tripos, Inc., St. Louis, Mo.) for docking and CSCORE™ (Tripos, Inc.) to evaluate the energetics and fitness of the docked structure. Algorithm-dependent lists of compounds, predicted to interact with the protein interaction site of Gβ and the structural model of the interaction, were generated. Selected compounds were subsequently analyzed in the phage ELISA binding assay disclosed herein to assess whether these compounds could bind to the protein interaction site of Gβ and interfere with protein interactions at this surface.
Wild-type Gβ1 and Gβ1 mutants were made in the baculovirus vector PDW464 which encodes a biotinylation site at a lysine upstream of the amino terminus of Gβ1 (Goubaeva, et al. (2003) supra). Mutants were generated by overlap extension PCR using standard protocols. The wild-type and mutant Gβ1 constructs consisted of a 20 amino acid biotin acceptor peptide (BAP) sequence fused in-frame with the amino-terminus of rat Gβ1 subunit. When coexpressed with biotin holoenzyme synthetase (BirA) in Sf9 cells, the Gβ1 subunit becomes covalently biotinylated in vivo at the Specific lysine acceptor residue in the BAP.
Phage ELISA assays used to assess peptide binding to wild-type and mutant b-βγ were performed according to standard methods (Smrcka and Scott (2002) Methods Enzymol. 344:557-76). Briefly, 1 μg streptavidin was immobilized in the well of a […] overnight at 4° C. The wells were blocked with 100 μL of 2% bovine serum albumin (BSA) in Tris-buffered saline (TBS) for 1 hour at 4° C. followed by three washes of 1×TBS/0.5% TWEEN®. […] The wells were washed, followed by the addition of 1×10^6 to 1×10^10 phage particles and incubated at 4° C. for 3 hours. The wells were then washed six times with TBS/0.5% TWEEN® followed by addition of 40 μL of 1:5000 dilution of anti-M13 antibody (Pharmacia, Uppsala, Sweden) and incubated at room temperature for 1 hour. The wells were washed, followed by the addition of 40 μL of (2,2′-Azino-bis(3-ethylbenzthiazoline)-6-sulfonic acid (ABTS) and the colorimetric reaction was monitored at 405 nm. Non-specific binding was subtracted for each reading.
A phage ELISA assay was used to determine whether small molecules identified in the computational screen could interact with the Gβγ protein interaction surface. […] The screen was based on a reduction in the optical density (OD) of wells containing Gβγ subunits and phage. […] Three background wells contained no βγ subunits.
As disclosed herein, biotinylated Gβγ subunits were immobilized on the surface of a 96-well plate coated with streptavidin, phage displaying Gβγ-binding peptides were subsequently added and binding in the presence and absence of test compounds detected with an anti-phage antibody.
Background: In an ELISA, binding on a coated surface is turned into a signal by an enzyme label.

pIC50: −log10 of the molar value.

As to `O=C(O)C1CC2C3(Cl)C(Cl)=C(Cl)C(Cl)C2(CC1c1c2ccc(=O)c(O)c-2oc2c(O)c(O)ccc12)C3(Cl)Cl` (centres unmarked) [NSC158110], the “fMLP-dependent ERK activation” value in test [1] was “do not interfere”.

For `Ic1ccc2c(c1)N(c1ccccc1)c1cc(Nc3ccc4nc5ccc(I)cc5[n+](-c5ccccc5)c4c3)ccc1N2` [NSC402959], the pIC50 in test [2] is 5.70.

Usually pIC50 stands for the negative decadic logarithm of the IC50, by convention in mol/L.
